Test results as given in patent publication US20220017520A1, “MACROCYCLIC COMPOUND AS CDK INHIBITOR, PREPARATION METHOD THEREFOR, AND USE THEREOF IN MEDICINE” (Keythera (Suzhou) Pharmaceuticals Co. Ltd., priority 2018, published 2022).
Read-outs that look alike come from different tables or passages of the source.

What was measured:
neointima formation = details: rats; cited from earlier work
CDK4/D3 = CDK4/D3 (Homo sapiens, UniProt P11802); assay: Inhibitory activity on CDK4 kinase by Caliper Mobility Shift method; format: biochemical; details: CDK4/D3, 28° C. for 5 hours
Description: Determination of Inhibitory Effect on CDK4/Cyclin D1
The determination of IC50 of CDK4/Cyclin D1 was conducted according to the following process. A 96-well filter plate (Millipore MADVN6550) was used. The total volume was 0.1 ml, containing buffer solution A (20 mM TRIS (tris[hydroxymethyl]aminomethane) (pH7.4), 50 mM NaCl, 1 mM dithiothreitol, 10 mM MgCl2), 2 μM ATP (containing […][32P]ATP), 20 ng CDK4, […] retinoblastoma protein and the test compound diluted in buffer solution A in an appropriate ratio. Buffer solution A alone without the test compound was used as the control without inhibitory effect. Buffer solution A containing excess EDTA was used to determine the background 32P level in the absence of enzymatic activity. All components except ATP were added to the wells, and the plate was shaked on a plate mixer for 2 minutes. [32P]ATP was added to initiate the reaction, and the plate was incubated at 25° C. for 15 minutes. 0.1 ml of 20% trichloroacetic acid (TCA) was added to stop the reaction. The plate was kept at 4° C. for at least 1 hour to allow the substrate to precipitate. The wells were washed five times with 0.2 ml of 10% TCA, and the binding of 32P was measured using a R plate counter (wallac Inc., Gaithersburg, Md.). IC50 of the test compound was determined by median effect method (Chou, T-C and Talalay P. Applications of the median effect principle for the assessment of low-dose risk of carcinogens and for the quantitation of synergism and antagonism of chemotherapeutic agents. In New Avenues in Developmental Cancer Chemotherapy (Eds. Harrap, K. T. and Connors, T. A.), pp. 37-64. Academic Press, New York, 1987).
(§1) Experimental method: Inhibitory activity on CDK4/6 kinase was determined by Caliper Mobility Shift method
1) Preparation of 1-fold CDK4 kinase buffer solution
800 μL of 1000 mM HEPES stock solution (pH 7.5) and 40 μL of 10% Triton X-100 stock solution were added to 39160 μL of ultra pure water, and the resulting solution was mixed well.
(§2) 25 mL of 4% Coating Reagent #3 (provided with the 12-sipper chip used in Caliper device) stock solution, 50 mL of 1000 mM HEPES stock solution (pH 7.5), 50 mL of 0.5 M EDTA stock solution and 0.25 mL of 30% Brij-35 stock solution were added to 374.75 mL of ultra pure water, and the resulting solution was mixed well.
1) Preparation of 2.5-fold CDK4/D3 kinase solution
7 μL of CDK4/D3 enzyme solution and 9 μL of 1M DTT stock solution were added to 1784 μL of 1-fold CDK4 kinase buffer solution, and the resulting solution was mixed well.
1) Preparation of 2.5-fold CDK4/D3 polypeptide solution
10 µL of 100 mM ATP stock solution, 45 μL of 1M MgCl2 stock solution and 45 μL of FAM-labelled polypeptide 8 were added to 1700 μL of 1-fold CDK4 kinase buffer solution, and the resulting solution was mixed well.
(§3) A 10 mM solution of the test compound in DMSO was diluted with DMSO to obtain a solution with a concentration of 50 μM, which was used as the stock solution. Said stock solution was subjected to 4-fold gradient dilution with DMSO to obtain solutions with a concentration of […], 3.12 μM, 0.78 μM, 0.19 μM, 0.048 μM, 12.2 nM, 3 nM, 0.76 nM and 0.19 nM, respectively. Each of the resulting solution was 10-fold diluted with 1-fold kinase buffer solution to obtain a 5-fold compound solution.
(§4) 1) 5 μL of the prepared 5-fold test compound solution and 10 μL of the prepared 2.5-fold kinase solution were added to the corresponding wells in a 384-well plate, and the plate was incubated at room temperature for 10 minutes.
(§5) 2) 10 μL of the prepared 2.5-fold polypeptide solution was added to the corresponding wells to start the enzymatic reaction, and the plate was incubated at 28° C. for 5 hours.
(§6) 25 μL of stop solution was added to each corresponding well to stop the reaction.
(§7) 8. The data was read by the Caliper device, the inhibition rate was calculated by the following formula, and curve fitting was carried out by GraphPad5.0 software to obtain the IC50 value.

CDK6/D3 = CDK6/D3 (Homo sapiens, UniProt Q00534); assay: Inhibitory activity on CDK6 kinase by Caliper Mobility Shift method; format: biochemical; details: CDK6/D3, 28° C. for 5 hours
Description: as §1
2) Preparation of 1-fold CDK6 kinase buffer solution
50 mL of 1000 mM HEPES stock solution (pH 7.5) and 50 μL of 30% Brij-35 stock solution were added to 949.95 mL of ultra pure water, and the resulting solution was mixed well.
as §2
2) Preparation of 2.5-fold CDK6/D3 kinase solution 18 μL of CDK6/D3 enzyme solution and 14 μL of 1M DTT stock solution were added to 2768 μL of 1-fold CDK6 kinase buffer solution, and the resulting solution was mixed well.
2) Preparation of 2.5-fold CDK6/D3 polypeptide solution
23 μL of 100 mM ATP stock solution, 75 μL of 1M MgCl2 stock solution and 75 μL of FAM-labelled polypeptide 8 were added to 2827 μL of 1-fold CDK6 kinase buffer solution, and the resulting solution was mixed well.
as §3, §4, §5, §6, §7

[1] = amide bond, HATU, dichloromethane, 25.0 °C, 16.0 h
MCF-7 cells = assay: In vitro cell proliferation assay by BrdU method; format: cell-based; details: Homo sapiens, MCF7, 72 hours, 10% FBS
Description: In Vitro Cell Inhibitory Activity of the Compound of the Present Invention
Experimental method: Cell proliferation assay was carried out by BrdU method (BrdU cell proliferation assay kit, Cell Signaling Technology Co.)
Preparation of gradient dilution solution of test compound: the 10 mM stock solution of test compound was subjected to 4-fold serial gradient dilution with DMSO to obtain solutions with a concentration of 2.5 mM, […], respectively. 2 μL of DMSO-diluted compound was added to 198 μL of culture medium containing 10% FBS to obtain 10-fold test compound, wherein the maximum concentration of the test compound was 10 μM, the DMSO concentration was 1%, with a total of 7 concentration gradients.
MCF-7 culture medium: DMEM+10% FBS+0.01 mg/mL insulin
(1) Cells grown to 80% (in exponential growth phase) were digested with pancreatin, and were collected by centrifugation. MDA-MB-435S cells and U87MG cells were re-suspended in a FBS-free culture medium, counted and inoculated to a 96-well plate; MDA-MB-435S cells were inoculated at 3000 cells/well/81 μL, and U87MG cells were inoculated at 4000 cells/well/81 μL. MCF-7 cells were resuspended in a culture medium containing 1% FBS, counted and inoculated to a 96-well plate at 4000 cell/well/82 μL. The cells were incubated in a cell incubator at 37° C.
(2) After 24 hours of incubation, FBS (9 μL) was added to each well of the MDA-MB-435S cells and U87MG cells, and 8 μL of FBS was added to each well of the MCF-7 cells, so as to obtain a final FBS concentration of 10%.
(3) A different concentration of 10-fold test compound (10 μL) was added to each well to obtain a final concentration of test compound of 10 μM, 2.5 μM, 625 nM, 156 nM, 39 nM, 9.8 nM or 2.5 nM, respectively, with 3 repeated wells/group, and the cells were incubated at 37° C. for 72 hours.
(4) 10-fold BrdU solution (10 μL) was added to each well, and the cells were incubated in the incubator for 4 hours, followed by discarding the culture medium.
(5) Fixing/denaturation solution (10 μL) was added to each well, and the cells were incubated at room temperature for 30 minutes, followed by discarding the solution.
(6) 1-fold detection antibody solution (100 μL) was added to each well, the cells were incubated at room temperature for 1 hour, followed by discarding the solution, and the cells were washed with 1-fold washing solution (200 μL/well) three times.
(7) 1-fold HRP-labelled secondary antibody solution (100 μL) was added to each well, the cells were incubated at room temperature for 30 minutes, followed by discarding the solution, and the cells were washed with 1-fold washing solution (200 μL/well) three times.
(8) TMB substrate solution (100 μL) was added to each well, and the cells were incubated at room temperature for 30 minutes.
(9) Stop solution (100 μL) was added to each well, and the OD value at 450 nm was measured by a microplate reader.
1) Cell survival rate (%)=(ODtest compound−ODblank control)/(ODnormal cell control−ODblank control)×100%,
2) The data was processed by GraphPad Prism 5 software to obtain the curve and IC50 values.

Chain of CDK4/D3 (P11802 whole entry, species assumed): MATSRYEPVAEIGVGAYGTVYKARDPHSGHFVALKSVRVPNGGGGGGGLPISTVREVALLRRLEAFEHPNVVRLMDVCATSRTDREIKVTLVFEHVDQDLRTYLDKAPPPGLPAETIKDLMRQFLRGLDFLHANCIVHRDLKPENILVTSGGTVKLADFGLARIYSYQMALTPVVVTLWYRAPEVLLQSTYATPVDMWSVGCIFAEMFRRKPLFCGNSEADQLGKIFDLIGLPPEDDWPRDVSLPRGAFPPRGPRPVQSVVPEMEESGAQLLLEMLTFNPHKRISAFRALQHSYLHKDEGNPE
Chain of CDK4/D3 (P30281 whole entry partner, species assumed): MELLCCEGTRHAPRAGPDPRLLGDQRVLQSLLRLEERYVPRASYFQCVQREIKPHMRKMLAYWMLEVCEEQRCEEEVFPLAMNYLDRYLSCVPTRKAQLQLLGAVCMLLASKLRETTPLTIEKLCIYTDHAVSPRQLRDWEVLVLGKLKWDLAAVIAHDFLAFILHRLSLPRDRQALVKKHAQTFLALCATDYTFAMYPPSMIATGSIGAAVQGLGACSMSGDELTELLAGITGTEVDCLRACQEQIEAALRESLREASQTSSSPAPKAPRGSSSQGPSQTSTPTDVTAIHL
Chain of CDK6/D3 (Q00534 whole entry, species assumed): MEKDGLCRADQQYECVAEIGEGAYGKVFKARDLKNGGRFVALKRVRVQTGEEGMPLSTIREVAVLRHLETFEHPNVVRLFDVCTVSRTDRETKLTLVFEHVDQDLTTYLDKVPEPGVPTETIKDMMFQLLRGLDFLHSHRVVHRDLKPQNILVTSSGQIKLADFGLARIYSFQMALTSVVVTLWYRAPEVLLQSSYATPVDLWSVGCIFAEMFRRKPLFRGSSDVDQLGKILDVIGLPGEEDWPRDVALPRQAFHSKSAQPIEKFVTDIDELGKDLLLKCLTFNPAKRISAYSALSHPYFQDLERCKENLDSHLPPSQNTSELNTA
Chain of CDK6/D3 (P30281 whole entry partner, species assumed): as the sequence (P30281 whole entry partner, species assumed) above

Structure (SMILES) | IC50 (CDK4/D3) [nM] | IC50 (CDK6/D3) [nM] | IC50 (MCF-7 cells) [nM] | further results
COc1ccc(CNc2nc(N(CCO)CCO)nc3c2ncn3C(C)C)cc1 [CVT-313] |  |  |  | inhibition of neointima formation (neointima formation): greater than 80%
CCN1CCN(Cc2cnc3cc2NCCC(C)n2c(C)nc4c(F)cc(cc42)-c2nc(ncc2F)N3)CC1 (stereo not shown) [Example 5, 4^5-((4-Ethylpiperazin-1-yl)methyl)-1^4,2^5-difluoro-1^2,8-dimethyl-1^1H-3,5-diaza-1(6,1)-benzo[d]imidazola-2(4,2)-pyrimidina-4(2,4)-pyridinacyclooctaphane] | 21 | 14 |  | 
CCN1CCN(Cc2cnc3cc2NC(=O)CCn2c(C)nc4c(F)cc(cc42)-c2nc(ncc2F)N3)CC1 [Example 4, 4^5-((4-Ethylpiperazin-1-yl)methyl)-1^4,2^5-difluoro-1^2-methyl-1^1H-3,5-diaza-1(6,1)-benzo[d]imidazola-2(4,2)-pyrimidina-4(2,4)-pyridinacyclooctaphan-6-one] | 0.78 | 1.13 | 132 | ring closure, yield of all isomers ([1]; from CCN1CCN(Cc2cnc(Nc3ncc(F)c(-c4cc(F)c5nc(C)n(CCC(=O)O)c5c4)n3)cc2N)CC1, 18.0 mM): 7.3%
CCN1CCN(Cc2cnc3cc2NC(=O)C[C@H](C)n2c(C)nc4c(F)cc(cc42)-c2nc(ncc2F)N3)CC1 [Example 3, (S)-4^5-((4-Ethylpiperazin-1-yl)methyl)-1^4,2^5-difluoro-1^2,8-dimethyl-1^1H-3,5-diaza-1(6,1)-benzo[d]imidazola-2(4,2)-pyrimidina-4(2,4)-pyridinacyclooctaphan-6-one] | 15 | 27 | 4120 | 

More lines, main results first:

IC50 (CDK4/D3) [nM] | IC50 (CDK6/D3) [nM] | IC50 (MCF-7 cells) [nM] | Structure (SMILES) | further results
5 | 12 |  | CCN1CCN(Cc2cnc3cc2NC(=O)CC2(CC2)n2c(C)nc4c(F)cc(cc42)-c2nc(ncc2F)N3)CC1 [Example 9, 5′-((4-Ethylpiperazin-1-yl)methyl)-4′,5′-difluoro-2′-methylspiro[cyclopropane-1,8′-3,5-diaza-1(6,1)-benzo[d]imidazola-2(4,2)-pyrimidina-4(2,4)-pyridinacyclooctaphan]-6′-one] | 
0.49 | 0.35 | 42 | CCN1CCN(Cc2cnc3cc2NC(=O)C[C@@H](C)n2c(C)nc4c(F)cc(cc42)-c2nc(ncc2F)N3)CC1 [Example 2, (R)-4^5-((4-Ethylpiperazin-1-yl)methyl)-1^4,2^5-difluoro-1^2,8-dimethyl-1^1H-3,5-diaza-1(6,1)-benzo[d]imidazola-2(4,2)-pyrimidina-4(2,4)-pyridinacyclooctaphan-6-one] | ring closure, yield of all isomers ([1]; from CCN1CCN(Cc2cnc(Nc3ncc(F)c(-c4cc(F)c5nc(C)n([C@H](C)CC(=O)O)c5c4)n3)cc2N)CC1, 13.8 mM): 7.4%
1.5 | 2.5 |  | CCN1CCN(Cc2cnc3cc2NC(=O)CC(C)n2ccc4ccc(cc42)-c2nc(ncc2F)N3)CC1 (stereo not shown) [Example 7, 4^5-((4-Ethylpiperazin-1-yl)methyl)-2^5-fluoro-8-methyl-1^1H-3,5-diaza-1(6,1)-indola-2(4,2)-pyrimidina-4(2,4)-pyridinacyclo-octaphan-6-one] | ring closure, yield of all isomers ([1]; from CCN1CCN(Cc2cnc(Nc3ncc(F)c(-c4ccc5ccn(C(C)CC(=O)O)c5c4)n3)cc2N)CC1, 14.0 mM): 33.3%
0.7 | 0.48 | 142 | CCN1CCN(Cc2cnc3cc2NC(=O)CC(C)n2c(C)nc4c(F)cc(cc42)-c2nc(ncc2F)N3)CC1 (stereo not shown) [Example 1, 4^5-((4-Ethylpiperazin-1-yl)methyl)-1^4,2^5-difluoro-1^2,8-dimethyl-1^1H-3,5-diaza-1(6,1)-benzo[d]imidazola-2(4,2)-pyrimidina-4(2,4)-pyridinacyclooctaphan-6-one] | ring closure, yield of all isomers ([1]; from CCN1CCN(Cc2cnc(Nc3ncc(F)c(-c4cc(F)c5nc(C)n(C(C)CC(=O)O)c5c4)n3)cc2N)CC1, 14.0 mM): 8.3%
8 | 10 |  | CCN1CCN(Cc2cnc3cc2NC(=O)CC(C)(C)n2c(C)nc4c(F)cc(cc42)-c2nc(ncc2F)N3)CC1 [Example 8, 4^5-((4-Ethylpiperazin-1-yl)methyl)-1^4,2^5-difluoro-1^2,8,8-trimethyl-1^1H-3,5-diaza-1(6,1)-benzo[d]imidazola-2(4,2)-pyrimidina-4(2,4)-pyridinacyclooctaphan-6-one] | 
